EP1200059B1, “SKIN CARE COMPOSITION” (UNILEVER PLC, priority 1999, dated 2001)
Read-outs that look alike come from different tables or passages of the source.

What was measured:
[1] = biological target: T1, lecithin retinol acyl transferase (LRAT) (Bos taurus, UniProt Q9BGL2); assay: in vitro Microsomal Assay of retinol esterification, LRAT catalysed (retinyl laurate formation); conditions: for % INHIBITION, LRAT: Table 6A, 100µM; for % INHIB. LRAT: Table 5
T1 sequence (Q9BGL2 1-230): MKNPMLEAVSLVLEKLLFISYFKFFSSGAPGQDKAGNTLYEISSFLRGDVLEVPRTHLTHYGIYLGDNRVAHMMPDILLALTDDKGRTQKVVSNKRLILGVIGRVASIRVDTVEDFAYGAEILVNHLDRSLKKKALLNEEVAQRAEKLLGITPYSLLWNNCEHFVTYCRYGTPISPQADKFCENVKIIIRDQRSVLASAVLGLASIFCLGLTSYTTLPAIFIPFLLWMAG
Experimental: (§1) A solution containing 0.1M sodium phosphate pH 7 buffer, 5mM dithiothreitol, 2 mg/ml bovine serum albumin, 40 micromolar palmitoyl CoA, 40 micromolar dilauroyl phosphatidyl choline, 10 micromolar retinol and a test compound or solvent blank, was incubated for 1 hour at 37°C with a microsomal fraction isolated from bovine retinal pigment epithelial cells. After incubation, the reaction was quenched by addition of an equal volume of ethanol, and the retinyl esters formed (retinyl palmitate from the ARAT catalysed reaction, and retinyl laurate from the LRAT catalysed reaction) were extracted with hexane.

[2] = system: acyl CoA retinol transferase (ARAT); assay: in vitro Microsomal Assay of retinol esterification, ARAT catalysed (retinyl palmitate formation); conditions: for % INHIB. ARAT: Table 5
Experimental: as §1

[3] = system: LRAT and ARAT catalysed retinol esterification; assay: in vitro Microsomal Assay, overall verdict on retinol esterification (LRAT and ARAT); conditions: verdict on the table results
Experimental: as §1

[4] = system: decorin synthesis in human dermal fibroblasts; assay: Dot blot assay for decorin protein in dermal fibroblast conditioned medium; type: cell-based; conditions: 0.01 µM Ceramide 6; 24 hours; relative to vehicle control = 100
Experimental: Primary human foreskin fibroblasts at passage 2 (P2) were seeded into 12-well plates at 10000 cells/cm^2 and maintained for 24 hours in an atmosphere of 5% carbon dioxide and 4% oxygen in Dulbeccos Modified Eagles Medium (DMEM) supplemented with 10% foetal calf serum. After this time the cells were washed with serum free DMEM and then incubated in fresh serum free DMEM for a further 60 hours. The fibroblast monolayers were then washed again with serum free DMEM. Test reagents and vehicle controls were added to the cells in triplicate in a final volume of 0.4ml/well fresh serum free DMEM and incubated for a further 24 hours. This fibroblast conditioned medium was either analysed immediately or snap frozen in liquid nitrogen and stored at -70°C for future analysis. The cells were then counted and data from the dot-blot analysis subsequently standardised to cell number. […]
At the end of this time the exposed screen was scanned by a phosphorimager (Molecular Dynamics Phosphorimager SF) using ImageQuant™ software. Dot intensity was assessed by computer-assisted image analysis using the quantification tools in ImageQuant™, standardised to cell number and the effects of various test reagents on decorin and procollagen-I synthesis were determined relative to a vehicle treated control value of 100 arbitrary units. […]

Row | Compound | % INHIBITION, LRAT [1] [%] | % INHIBITION, ARAT ([2]; Table 6A, 100µM) [%] | inhibition at 100 µM ([1]; read-out: % INHIBITION, LRAT) [%] | other results
1 | CC1=CCCC(C)(C)C1/C=C/C(=O)CC(C)C (stereo not drawn) [Isobutyl ionone] | 45 | – | – | –
2 | Sandanol | 43 | 15 | – | –
3 | C=C(C)C1CC=C(C)C(=O)C1 (stereo not drawn) [Carvone] | – | – | 0 | % INHIBITION, ARAT ([2]; Table 7, 100 µM): 0%
4 | CC(=O)/C(C)=C/C1C(C)=CCCC1(C)C (stereo not drawn) [Gamma methyl ionone] | 38 | – | – | –
5 | CC(C)[C@@H]1CC[C@@H](C)CC1=O [Mentone] | – | – | 0 | –
6 | CCCCCCCCCCCCC/C=C/[C@@H](O)[C@H](CO)NC(C)=O [Acetyl Sphingosine] | – | – | – | retinol esterification inhibition (result in words) [3]: potent retinol esterification inhibitors; % INHIB. LRAT ([1]; 10 μM): 10%; % INHIB. LRAT ([1]; 100 μM): 50%; % INHIB. ARAT ([2]; 10 μM): 19%; % INHIB. ARAT ([2]; 100 μM): 62%
7 | CCCCC/C=C\C/C=C\CCCCCCCC(=O)N(CCO)CCO [Linoleamide-DEA (LODEA), Linoleamide-DEA] | – | – | – | retinol esterification inhibition (result in words) [3]: potent retinol esterification inhibitors; inhibition at 10 µM ([1]; read-out: % INHIB. LRAT): 11%; inhibition at 100 µM ([1]; read-out: % INHIB. LRAT): 51%
8 | Sandalone | 12 | 23 | – | –
9 | CC=CC(=O)C1CCC(C)(C)C=C1C (stereo not drawn) [Isodamascone] | 92 | 80 | – | –
10 | CC(=O)c1cc2c(cc1C)C(C)(C)[C@H](C)[C@H]2C(C)C [Traseolide] | – | 41 | – | –
11 | C/C=C/C(=O)C1=C(C)C=CCC1(C)C [Damascenone] | – | – | 79 | inhibition at 10 µM ([1]; read-out: % INHIBITION, LRAT): 29%
12 | CC(=O)c1cc2c(cc1C)C(C)(C)C(C)CC2(C)C (stereo not drawn) [Tonalid] | – | 50 | 33 | –
13 | CC(C)(O)CCCC1=CCC(C=O)CC1 (stereo not drawn) [Lyral] | – | 76 | – | –
14 | Ceramide 6 | – | – | – | Decorin [4]: 101.2%
15 | CCC(=O)/C=C/C1C(C)=CCCC1(C)C (stereo not drawn) [Alpha methyl ionone] | 77 | 67 | – | –
16 | CC1=CC(C)C(CO)C(C)C1 (stereo not drawn) [Isocyclogeraniol] | – | – | 16 | % INHIBITION, ARAT ([2]; Table 7, 100 µM): 18%
17 | CC(=O)CCC1C(C)=CCCC1(C)C (stereo not drawn) [Dihydro alpha ionone] | – | – | – | % INHIBITION, ARAT ([2]; Table 7, 100 µM): 13%
18 | C/C=C/C(=O)C1C(C)C=CCC1(C)C (stereo not drawn) [Delta damascone] | – | – | 95 | inhibition at 10 µM ([1]; read-out: % INHIBITION, LRAT): 64%
19 | CC12CCC(CC1)C(C)(C)O2 [Eucalyptol] | – | – | 0 | % INHIBITION, ARAT ([2]; Table 7, 100 µM): 0%
20 | CCCCC/C=C\C/C=C\CCCCCCCC(=O)NCCO [Linoleamide-MEA (LOMEA), Linoleamide-MEA] | – | – | – | retinol esterification inhibition (result in words) [3]: potent retinol esterification inhibitors
